Experiment [1] concerns the target PRMT5/MEP50 protein complex (Homo sapiens (Human), UniProt O14744). Description: PRMT5 biochemical assay (3H-SAM methylation of H4(1-21) peptide, filter plate scintillation counting). The settings on record: PRMT5 enzyme inhibition; 10 nM PRMT5/MEP50 complex, 200 nM H4(1-21) peptide, 1 uM SAM, 25 minute incubation at room temperature. In outline:
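Flag-PRMT5/MEP50 was co-expressed in Sf21 cells and Flag-affinity purified. Reactions used 10 nM complex, 200 nM H4(1-21) peptide and 1 uM 3H-SAM (final) in 50 mM Tris pH 8.5, 50 mM NaCl, 5 mM MgCl2, 1 mM EDTA and 1 mM TCEP, run 25 min at room temperature. Reactions were TCA-stopped, filter-captured and scintillation-counted; IC50 came from a 4-parameter fit.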

For experiment [2], the system named is A549 lung adenocarcinoma cells. Kind of experiment: A549 proliferation assay (Cell Titer Glo, 7 days). It is filed as cell-based. The note with it: Homo sapiens, 168 h, 7 days with compound, cell viability by Cell Titer Glo (ATP). How it is done:
A549 lung adenocarcinoma cells (American Type CuIture Collection) were maintained in DMEM growth media (Life Technologies) supplemented with 10% v/v heat inactivated fetal bovine serum (Sigma) and cultured at 37° C., 5% CO2. Exponentially growing A549 cells were plated in 96-well black tissue culture treated plates (Corning) at a density of 2500 cells/ml in a volume of 100 μl culture media and allowed to adhere overnight at 37° C., 5% CO2. The following day, compound plates were prepared by making nine-point 3.3-fold dilutions in DMSO with a top concentration of 10 mM. Compounds were further diluted in culture media and 11 μl was added to the cells (final top assay concentration was 10 μM and DMSO was […]). Cells were incubated with compound at 37° C., 5% CO2 for 7 days with media and compound replacement on day 4. Cell viability was assayed on Day 7 by adding 100 μl Cell Titer Glo (Promega) reagent to the plate to measure the amount of ATP present in the cells. Luminescence was read using the Envision 2104 Multilabel Reader (Perkin Elmer).
Results for the A549 proliferation assay of examples are summarized in Table 2, shown as IC50 values in μM.

A word on the IC50: it is the midpoint of a concentration-inhibition curve.

PRMT5/MEP50 protein complex, sequence (O14744 other isoform, or with tags, fused parts or gaps): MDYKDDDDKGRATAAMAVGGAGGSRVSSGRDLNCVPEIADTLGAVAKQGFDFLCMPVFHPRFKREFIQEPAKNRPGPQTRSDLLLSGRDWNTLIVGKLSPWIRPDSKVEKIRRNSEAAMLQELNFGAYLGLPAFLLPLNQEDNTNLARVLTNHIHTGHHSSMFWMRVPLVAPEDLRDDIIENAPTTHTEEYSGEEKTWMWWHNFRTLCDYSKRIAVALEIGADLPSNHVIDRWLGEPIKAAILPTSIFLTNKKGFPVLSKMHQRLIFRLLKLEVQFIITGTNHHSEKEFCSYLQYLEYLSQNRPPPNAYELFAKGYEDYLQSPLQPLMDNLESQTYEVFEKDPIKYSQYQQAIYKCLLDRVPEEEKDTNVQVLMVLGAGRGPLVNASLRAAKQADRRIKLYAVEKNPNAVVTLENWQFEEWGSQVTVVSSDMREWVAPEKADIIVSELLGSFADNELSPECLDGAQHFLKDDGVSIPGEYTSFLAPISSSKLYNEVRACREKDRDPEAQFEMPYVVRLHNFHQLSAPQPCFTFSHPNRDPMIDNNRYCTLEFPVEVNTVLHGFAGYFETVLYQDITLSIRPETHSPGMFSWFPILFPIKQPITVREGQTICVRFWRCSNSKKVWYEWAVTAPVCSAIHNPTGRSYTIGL
PRMT5/MEP50 protein complex, sequence (Q9BQA1 whole entry partner): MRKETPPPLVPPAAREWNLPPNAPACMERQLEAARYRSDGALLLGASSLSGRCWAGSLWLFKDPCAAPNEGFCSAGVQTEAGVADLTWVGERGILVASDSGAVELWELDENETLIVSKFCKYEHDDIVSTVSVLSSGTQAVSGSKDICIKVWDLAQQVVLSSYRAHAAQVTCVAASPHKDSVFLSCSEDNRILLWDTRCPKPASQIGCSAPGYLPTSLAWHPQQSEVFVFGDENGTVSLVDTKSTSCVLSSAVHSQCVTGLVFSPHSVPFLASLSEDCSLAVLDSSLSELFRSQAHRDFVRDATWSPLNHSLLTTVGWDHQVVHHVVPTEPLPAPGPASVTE

As to `Nc1ncnc2c1ccn2[C@@H]1O[C@H]([C@H](O)c2ccc(Cl)cc2)[C@@H](O)[C@H]1O` [Example 87, (2R,3R,4S,5R)-2-(4-amino-7H-pyrrolo[2,3-d]pyrimidin-7-yl)-5-((R)-(4-chlorophenyl)(hydroxy)methyl)tetrahydrofuran-3,4-diol], the IC50 amounted to 1 nM in experiment [1] and 5 nM in experiment [2].

Take `Nc1ncnc2c1ccn2[C@@H]1O[C@H]([C@H](O)c2ccc(Cl)c(F)c2)[C@@H](O)[C@H]1O` [Example 88, (2R,3R,4S,5R)-2-(4-amino-7H-pyrrolo[2,3-d]pyrimidin-7-yl)-5-((R)-(4-chloro-3-fluorophenyl)(hydroxy)methyl)tetrahydrofuran-3,4-diol]: the results for the IC50 in experiment [1] and in experiment [2] were 1 nM and 3 nM, respectively.

For `Cc1ncnc2c1ccn2[C@@H]1O[C@H]([C@H](F)c2ccc(F)c(F)c2)[C@@H](O)[C@H]1O` [Example 92, (2S,3S,4R,5R)-2-((R)-(3,4-difluorophenyl)fluoromethyl)-5-(4-methyl-7H-pyrrolo[2,3-d]pyrimidin-7-yl)tetrahydrofuran-3,4-diol], the IC50 in experiment [1] is 14 nM; in experiment [2], 257 nM.

As to `Cc1ncnc2c1c(F)cn2[C@@H]1O[C@H]([C@H](O)c2ccc(F)cc2)[C@@H](O)[C@H]1O` [Example 98, (2R,3R,4S,5R)-2-(5-fluoro-4-methyl-7H-pyrrolo[2,3-d]pyrimidin-7-yl)-5-((R)-(4-fluorophenyl)(hydroxy)methyl)tetrahydrofuran-3,4-diol], the IC50 in experiment [1] amounted to 18 nM; in experiment [2], 250 nM.

For `Cc1nc(C)c2ccn([C@@H]3O[C@H]([C@H](O)c4ccc(F)cc4)[C@@H](O)[C@H]3O)c2n1` [Example 99, (2R,3R,4S,5R)-2-(2,4-dimethyl-7H-pyrrolo[2,3-d]pyrimidin-7-yl)-5-((R)-(4-fluorophenyl)(hydroxy)methyl)tetrahydrofuran-3,4-diol], the concentration for half-maximal inhibition (IC50) in experiment [1] came out at 21 nM; in experiment [2], 364 nM.

For `Cc1ncnc2c1ccn2[C@@H]1O[C@H]([C@H](O)c2cccc3c2CNCC3)[C@@H](O)[C@H]1O` [Example 112, (2R,3S,4R,5R)-2-((R)-hydroxy(1,2,3,4-tetrahydroisoquinolin-8-yl)methyl)-5-(4-methyl-7H-pyrrolo[2,3-d]pyrimidin-7-yl)tetrahydrofuran-3,4-diol], the half-inhibitory concentration (IC50) in experiment [1] stood at 1 nM; in experiment [2], 350 nM.

Turning to `O[C@@H]1[C@H](O)[C@@H]([C@H](O)c2ccc(Cl)c(F)c2)O[C@H]1n1ccc2cncnc21` [Example 115, (2R,3S,4R,5R)-2-((R)-(4-chloro-3-fluorophenyl)(hydroxy)methyl)-5-(7H-pyrrolo[2,3-d]pyrimidin-7-yl)tetrahydrofuran-3,4-diol], the IC50 came out at 2 nM in experiment [1] and 46 nM in experiment [2].

In the case of `N[C@H](c1ccc(Cl)c(F)c1)[C@H]1O[C@@H](n2ccc3cncnc32)[C@H](O)[C@@H]1O` [Example 116, (2R,3S,4R,5R)-2-((R)-amino(4-chloro-3-fluorophenyl)methyl)-5-(7H-pyrrolo[2,3-d]pyrimidin-7-yl)tetrahydrofuran-3,4-diol], the IC50 came out at 5 nM in experiment [1] and 1640 nM in experiment [2].

Consider `O[C@@H]1[C@H](O)[C@@H]([C@H](O)c2ccc(F)c(F)c2)O[C@H]1n1ccc2cncnc21` [Example 117, (2R,3S,4R,5R)-2-((R)-(3,4-difluorophenyl)(hydroxy)methyl)-5-(7H-pyrrolo[2,3-d]pyrimidin-7-yl)tetrahydrofuran-3,4-diol], for which the 50% inhibitory concentration (IC50) in experiment [1] was 5 nM; in experiment [2], 92 nM.

Take `Nc1ncnc2c1c(I)cn2[C@@H]1O[C@H]([C@H](O)c2ccc(F)c(F)c2)[C@@H](O)[C@H]1O` [Example 119, (2R,3R,4S,5R)-2-(4-amino-5-iodo-7H-pyrrolo[2,3-d]pyrimidin-7-yl)-5-((R)-(3,4-difluorophenyl)(hydroxy)methyl)tetrahydrofuran-3,4-diol]: the IC50 amounted to 7 nM in experiment [1] and 322 nM in experiment [2].

(Values after US10428104B2, “Substituted nucleoside derivatives useful as anticancer agents” (Pfizer Inc., priority 2015, dated 2019).)
